{"source": "patent US9149536B2", "about": "“Conjugated antimicrobial agents” (priority 2009, dated 2015)", "key": {"[1]": {"test_system": "E. coli R477-100", "assay": "MIC, double-microdilution, E. coli R477-100", "assay_type": "cell-based, Escherichia coli", "conditions": "Escherichia coli, R477100, read-out: MIC E. coli R477-100"}, "[2]": {"test_system": "E. coli ATCC 25922", "assay": "MIC, double-microdilution, E. coli ATCC 25922", "assay_type": "cell-based, Escherichia coli", "conditions": "Escherichia coli, ATCC25922; Table 4; read-out: MIC E. coli ATCC 25922"}, "[3]": {"test_system": "E. coli AG100B", "assay": "MIC, double-microdilution, E. coli AG100B", "assay_type": "cell-based, Escherichia coli", "conditions": "Escherichia coli, AG100B, read-out: MIC E. coli AG100B, Table 4; kanamycin resistant, APH(3′)-I", "text": "AG100B and AG100A are two kanamycin resistant Escherichia coli strains expressing APH(3′)-I aminoglycoside resistance enzyme."}, "[4]": {"test_system": "E. coli AG100A", "assay": "MIC, double-microdilution, E. coli AG100A", "assay_type": "cell-based, Escherichia coli", "conditions": "Escherichia coli, AG100A, read-out: MIC E. coli AG100A, Table 4; kanamycin resistant, APH(3′)-I"}, "[5]": {"test_system": "B. subtilis ATCC 6633", "assay": "MIC, double-microdilution, B. subtilis ATCC 6633", "assay_type": "cell-based", "conditions": "Bacillus subtilis, ATCC6633; Table 4; read-out: MIC B. subtilis ATCC 6633"}, "[6]": {"test_system": "MRSA ATCC 43300", "assay": "microbe, parasite or virus in culture", "assay_type": "cell-based, S. aureus", "conditions": "Staphylococcus aureus, read-out: MIC MRSA ATCC 43300"}, "[7]": {"test_system": "E. coli BL21/pETSACG1", "assay": "microbe, parasite or virus in culture", "assay_type": "cell-based", "experimental": "(§1) For this purpose, exemplary conjugates, according to some embodiments of the present invention, were tested against five isogenic E. coli strains. E. coli (pSF815) and E. coli (pET9d) are laboratory resistant strains derived by transformation of E. coli XL1 blue (background strain) with the pSF815 and pET9d plasmids, respectively. […] The last two isogenic strains used were E. coli BL21 (background strain) and E. coli (pETSACG1). […] These three enzymes are among the most prevalent modes of resistance found in aminoglycosides resistance strains.\n(§2) The MIC ratios were calculated by dividing the MIC value against resistant strain to that against the respective background strain."}, "[8]": {"test_system": "E. coli BL21", "assay": "microbe, parasite or virus in culture", "assay_type": "cell-based", "conditions": "Escherichia coli, BL21; background strain", "experimental": "as §1, §2"}, "[9]": {"test_system": "E. coli XL1 blue/pET9d", "assay": "microbe, parasite or virus in culture", "assay_type": "cell-based", "experimental": "as §1, §2"}, "[10]": {"test_system": "E. coli XL1 blue/pSF815", "assay": "microbe, parasite or virus in culture", "assay_type": "cell-based", "conditions": "Escherichia coli, XL1BLUE/PSF815, read-out: MIC XL1 blue/pSF815", "experimental": "as §1, §2"}, "[11]": {"test_system": "E. coli XL1 blue", "assay": "microbe, parasite or virus in culture", "assay_type": "cell-based", "conditions": "Escherichia coli, XL1BLUE; background strain; read-out: MIC XL1 blue", "experimental": "as §1, §2"}, "[12]": {"molecular_target": "T1, APH(3′)-IIIa enzyme (Enterococcus faecalis, UniProt P0A3Y5)", "T1 construct": "made in house; host or cells: E. coli BL21 carrying pETSACG1 (inferred)", "T1 sequence (P0A3Y5 whole entry)": "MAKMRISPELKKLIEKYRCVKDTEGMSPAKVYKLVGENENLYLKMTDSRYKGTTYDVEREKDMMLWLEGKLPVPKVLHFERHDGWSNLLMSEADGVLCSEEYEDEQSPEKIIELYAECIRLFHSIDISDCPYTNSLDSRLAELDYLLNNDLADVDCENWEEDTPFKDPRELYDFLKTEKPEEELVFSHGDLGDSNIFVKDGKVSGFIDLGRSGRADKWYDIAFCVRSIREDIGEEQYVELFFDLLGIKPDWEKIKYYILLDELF", "assay_type": "biochemical", "conditions": "compound as substrate of APH(3′)-IIIa"}, "[13]": {"molecular_target": "T2, E. coli TopoIV (Escherichia coli, UniProt P0AFI2+P20083)", "T2 construct": "purchased Inspiralis Ltd", "T2 sequence (P0AFI2 whole entry)": "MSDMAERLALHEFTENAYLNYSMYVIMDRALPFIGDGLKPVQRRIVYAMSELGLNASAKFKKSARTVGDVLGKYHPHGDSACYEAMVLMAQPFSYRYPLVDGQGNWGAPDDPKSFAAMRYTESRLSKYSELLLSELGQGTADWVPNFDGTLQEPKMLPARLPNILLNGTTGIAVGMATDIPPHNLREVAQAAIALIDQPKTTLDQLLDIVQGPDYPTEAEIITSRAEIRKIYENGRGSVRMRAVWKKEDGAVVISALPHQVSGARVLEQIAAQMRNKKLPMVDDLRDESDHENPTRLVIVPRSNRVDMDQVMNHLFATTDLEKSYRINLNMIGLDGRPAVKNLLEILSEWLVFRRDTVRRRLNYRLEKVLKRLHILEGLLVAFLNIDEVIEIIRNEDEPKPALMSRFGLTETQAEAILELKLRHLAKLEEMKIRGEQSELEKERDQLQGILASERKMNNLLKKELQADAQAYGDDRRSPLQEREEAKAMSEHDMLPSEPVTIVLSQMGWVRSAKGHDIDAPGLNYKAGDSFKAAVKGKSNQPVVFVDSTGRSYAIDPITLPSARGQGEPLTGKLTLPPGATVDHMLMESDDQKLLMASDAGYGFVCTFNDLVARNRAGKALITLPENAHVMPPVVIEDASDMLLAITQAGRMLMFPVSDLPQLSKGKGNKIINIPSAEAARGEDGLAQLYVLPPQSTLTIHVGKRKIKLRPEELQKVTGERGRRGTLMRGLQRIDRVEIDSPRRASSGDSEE", "T2 sequence (P20083 whole entry)": "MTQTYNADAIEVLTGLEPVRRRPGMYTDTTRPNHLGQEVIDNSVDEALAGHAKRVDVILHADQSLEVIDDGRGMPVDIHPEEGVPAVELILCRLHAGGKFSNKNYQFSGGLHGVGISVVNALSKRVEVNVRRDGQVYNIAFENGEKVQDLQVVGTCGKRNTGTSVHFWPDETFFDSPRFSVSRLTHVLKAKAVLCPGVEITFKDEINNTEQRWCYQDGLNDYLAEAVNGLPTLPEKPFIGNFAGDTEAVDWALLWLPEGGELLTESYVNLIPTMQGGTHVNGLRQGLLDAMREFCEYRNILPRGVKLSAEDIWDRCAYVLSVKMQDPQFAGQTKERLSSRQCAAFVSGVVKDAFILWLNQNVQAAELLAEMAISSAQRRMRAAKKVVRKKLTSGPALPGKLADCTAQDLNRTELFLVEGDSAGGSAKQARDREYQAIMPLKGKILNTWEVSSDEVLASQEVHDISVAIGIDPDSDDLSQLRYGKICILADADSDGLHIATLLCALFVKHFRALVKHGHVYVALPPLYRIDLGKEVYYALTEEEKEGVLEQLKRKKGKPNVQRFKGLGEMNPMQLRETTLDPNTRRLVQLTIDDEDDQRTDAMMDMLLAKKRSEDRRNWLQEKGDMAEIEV", "assay": "TopoIV relaxation assay", "assay_type": "biochemical", "conditions": "relaxation assay, supercoiled pBR322", "experimental": "DNA relaxation activity was assayed with supercoiled pBR322 DNA as a substrate (Inspiralis Ltd) according to the manufacturer's protocol. The standard reaction mixture (20 μl) contained 40 mM HEPES-KOH pH 7.6, 100 mM potassium glutamate, 10 mM Mg(OAc)2, 10 mM dithiothreitol, 1 mM ATP, 50 μg/ml albumin, 5 ng/μl […] pBR322, and TopoIV protein. The reaction mixture was incubated at 37° C. for 30 minutes, and then was terminated by addition of 2 μl 0.5 M EDTA, 3.5 μl loading dye and 20 μl chloroform/isoamyl alcohol (24:1) mixture. […] One unit of relaxation activity was defined as the amount of TopoIV required to relax 0.1 μg of plasmid in 30 minutes.\n(§3) Relaxation assays were conducted with E. coli TopoIV."}, "[14]": {"test_system": "bacterial protein synthesis", "assay": "In vitro coupled transcription/translation assay, E. coli S30 extract", "assay_type": "biochemical", "conditions": "luciferase readout", "experimental": "Protein translation inhibition by the different compounds was quantified in a coupled transcription/translation assay by using E. coli S30 extracts for circular DNA with the pBEST/uc plasmid (Promega), according to the manufacturer's protocol.\nTranslation reactions (25 μl) that contained variable concentrations of the tested compound were incubated at 37° C. for 60 minutes, cooled on ice for 5 minutes, and diluted with a dilution reagent (tris-phosphate buffer (25 mM, pH 7.8), DTT (2 mM), 1,2-diaminocyclohexanetetraacetate (2 mM), glycerol (10%), Triton X-100 (1%) and BSA (1 mg/ml)) into 96-well plates. The luminescence was measured immediately after the addition of the Luciferase Assay Reagent (50 μl; Promega), and the light emission was recorded with a Victor3™ Plate Reader (Perkin-Elmer). The concentration of half-maximal inhibition (IC50) was obtained from fitting concentration-response curves to the data of at least two independent experiments by using Grafit 5 software (Leatherbarrow, R. J. Erithacus Software Ltd: Horley, U.K., 2001).\nas §3"}, "[15]": {"test_system": "B. subtilis ATCC 6633", "assay": "microbe, parasite or virus in culture", "assay_type": "cell-based", "conditions": "for MIC: Bacillus subtilis", "experimental": "(§4) In parallel, MIC evolution during these subcultures was compared concomitantly with each new generation, using bacteria harvested from control wells (wells cultured without antimicrobial agent from the previous generation). The relative MIC was calculated for each experiment from the ratio of MIC obtained for a given subculture to that obtained for first-time exposure."}, "[16]": {"test_system": "E. coli ATCC 35218", "assay": "microbe, parasite or virus in culture", "assay_type": "cell-based", "conditions": "for MIC: Escherichia coli", "experimental": "as §4"}, "[17]": {"molecular_target": "E. coli DNA gyrase (Escherichia coli, UniProt P0AES4+P0AES6)", "sequence (P0AES4 whole entry, one chain of several)": "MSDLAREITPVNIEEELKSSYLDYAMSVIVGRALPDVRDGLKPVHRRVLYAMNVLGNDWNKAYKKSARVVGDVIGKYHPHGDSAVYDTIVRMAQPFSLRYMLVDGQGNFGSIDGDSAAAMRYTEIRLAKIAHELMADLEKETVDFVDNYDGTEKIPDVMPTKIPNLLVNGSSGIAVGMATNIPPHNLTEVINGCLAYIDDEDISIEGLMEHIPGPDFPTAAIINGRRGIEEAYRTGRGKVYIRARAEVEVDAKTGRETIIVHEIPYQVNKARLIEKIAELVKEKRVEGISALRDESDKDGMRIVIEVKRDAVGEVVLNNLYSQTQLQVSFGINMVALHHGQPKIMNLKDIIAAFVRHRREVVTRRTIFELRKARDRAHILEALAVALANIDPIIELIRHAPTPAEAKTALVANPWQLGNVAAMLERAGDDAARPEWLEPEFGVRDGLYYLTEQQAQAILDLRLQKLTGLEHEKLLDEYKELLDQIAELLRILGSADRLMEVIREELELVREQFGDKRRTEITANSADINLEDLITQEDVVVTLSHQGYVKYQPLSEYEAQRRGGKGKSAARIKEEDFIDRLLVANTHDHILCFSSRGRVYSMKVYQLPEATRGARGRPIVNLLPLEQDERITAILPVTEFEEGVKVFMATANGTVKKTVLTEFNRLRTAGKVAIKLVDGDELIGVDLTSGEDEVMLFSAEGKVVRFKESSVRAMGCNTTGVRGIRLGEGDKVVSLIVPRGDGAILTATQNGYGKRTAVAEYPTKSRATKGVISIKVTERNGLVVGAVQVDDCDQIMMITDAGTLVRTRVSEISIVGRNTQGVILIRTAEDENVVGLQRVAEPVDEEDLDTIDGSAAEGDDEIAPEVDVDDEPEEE", "conditions": "supercoiling assay, relaxed pBR322"}, "[18]": {"conditions": "MIC resistant strain divided by MIC background strain"}, "[19]": {"conditions": "MIC of subculture to MIC upon first exposure"}}, "note": "Read-outs that look alike come from different tables or passages of the source."}
{"smiles": "NC[C@@H]1O[C@H](O[C@H]2[C@@H](O)[C@H](O[C@@H]3[C@@H](O)[C@H](N)C[C@H](N)[C@H]3O[C@H]3O[C@H](CN)[C@@H](O)[C@H](O)[C@H]3N)O[C@@H]2CO)[C@H](N)[C@@H](O)[C@@H]1O", "note": "[NeoB, neomycin B, reference compound]", "values": [{"measurement": "MIC", "setting": "[1]", "result": 24, "unit": "µg/mL"}, {"measurement": "MIC", "setting": "[2]", "result": 48, "unit": "µg/mL"}, {"measurement": "MIC", "setting": "[3]", "result": 384, "unit": "µg/mL"}, {"measurement": "MIC", "setting": "[4]", "result": 96, "unit": "µg/mL"}, {"measurement": "MIC", "setting": "[5]", "result": 1.5, "unit": "µg/mL"}, {"measurement": "MIC", "setting": "[6]", "result": 384, "unit": "µg/mL"}, {"measurement": "MIC", "setting": "[7]; Escherichia coli, BL21/PETSACG1, read-out: MIC BL21/pETSACG1", "result": 48, "unit": "µg/mL"}, {"measurement": "MIC ratio BL21/pETSACG1 to BL21", "setting": "[7]; [18]", "result": 8}, {"measurement": "MIC", "setting": "[8]", "result": 6, "unit": "µg/mL"}, {"measurement": "MIC", "setting": "[9]; Escherichia coli, XL1BLUE/PET9D, read-out: MIC XL1 blue/pET9d", "result": 96, "unit": "µg/mL"}, {"measurement": "MIC ratio XL1 blue/pET9d to XL1 blue", "setting": "[9]; [18]", "result": 16}, {"measurement": "MIC", "setting": "[10]", "result": "> 384", "unit": "µg/mL"}, {"measurement": "MIC", "setting": "[11]", "result": 6, "unit": "µg/mL"}, {"measurement": "kcat", "setting": "[12]", "result": "2.4 ± 0.1", "unit": "s⁻¹"}, {"measurement": "TopoIV IC50", "setting": "[13]", "result": "inactive"}, {"measurement": "IC50", "setting": "[14]", "result": "10.5 ± 0.1", "unit": "µM"}, {"measurement": "MIC", "setting": "[15]; ATCC6633, read-out: MIC 1st passage, B.subtilis ATCC 6633", "result": 0.75, "unit": "µg/mL"}, {"measurement": "MIC", "setting": "[15]; ATCC6633, read-out: MIC 15th passage, B.subtilis ATCC 6633", "result": 6, "unit": "µg/mL"}, {"measurement": "Ratio (relative MIC) 15th/1st passage, B.subtilis ATCC 6633", "setting": "[15]; [19]", "result": 8}, {"measurement": "MIC", "setting": "[16]; ATCC35218, read-out: MIC 1st passage, E.coli ATCC 35218", "result": 12, "unit": "µg/mL"}, {"measurement": "MIC", "setting": "[16]; ATCC35218, read-out: MIC 15th passage, E.coli ATCC 35218", "result": 48, "unit": "µg/mL"}, {"measurement": "Ratio (relative MIC) 15th/1st passage, E.coli ATCC 35218", "setting": "[16]; [19]", "result": 4}, {"measurement": "DNA gyrase IC50", "setting": "[17]", "result": "inactive"}]}
